Experimental data published in article PMC2810339, “Allosteric Regulation of HIV-1 Reverse Transcriptase by ATP for Nucleotide Selection” (PLoS ONE, 2010).

What was measured:
Format in all cases: biochemical, HIV-1
[1] = system: multi-NRTI-resistant RT (ERT-mt6), purified p51/p66 heterodimer; assay: RNA-dependent DNA polymerase activity, dTTP incorporation into poly (rA)·p(dT)12-18, steady-state kinetics; details: for fold increase in IC50 of AZTTP compared to AZTTP without the compound: in the presence of 5 mM of the indicated compound; for fold increase in Ki^NRTI value compared to without ATP: at 3 mM of ATP
Protocol: (§1) RNA-dependent DNA polymerase activity was measured using [α-^32P]dTTP and poly(rA)/poly(dT)12-18 as described previously. […] These experiments were performed in duplicate and repeated two to six times.
(§2) The averages of the experimental data were fit by a nonlinear regression method using the program Igor Pro (WaveMetrics, USA). The kinetics parameters were determined by the Michaelis-Menten equation: [drawing 1] (1) where [S] is the substrate concentration; Km^app is the apparent Michaelis-Menten constant; and Vmax^app is the apparent maximal rate attained when the enzyme active sites are saturated by substrate.
(§3) Using this model, the enzyme kinetic parameters were calculated using Equations 2–5.
(§4) Vmax^app and Km^app are defined as [drawing 2] (2) and [drawing 3] (3) respectively, where Km is the Michaelis-Menten constant; [E] is the enzyme concentration; [I] is the inhibitor concentration; Ki and Ki′ are the inhibition constants for the enzyme and the complex of the enzyme with substrate; and kcat^app is the apparent turnover number: [drawing 4] (4) where kcat is the turnover number.
(§5) The kcat^app and Km^app that can be derived from the model (Figure 2C) are [drawing 5] (5) and [drawing 6] (6) where Ki^ATP is the dissociation constant of ATP; Ki^AZTTP is the dissociation constant of AZTTP; [I^ATP] is the ATP concentration; and [I^AZTTP] is the AZTTP concentration.

[2] = system: NRTI-sensitive RT (93JP-NH1), purified p51/p66 heterodimer; assay: as above; details: for fold increase in Ki^NRTI value compared to without ATP: at 3 mM of ATP
Protocol: as §1, §2, §3, §4, §5

[3] = system: D113A/N mutants of ERT-mt6 RT; assay: RNA-dependent DNA polymerase activity of site-directed RT mutants from ERT-mt6; details: D113A/N versus ERT-mt6 RT; 5 mM ATP (Figure S4C)
Protocol: The purified RTs were dissolved in the RT stock buffer (50 mM Tris-HCl pH 7.5, 75 mM KCl, 5 mM MgCl2, 2 mM DTT, 0.05% NP40, and 50% glycerol)[32], [33] and kept at −30°C until use. RNA-dependent DNA polymerase activity was measured using [α-^32P]dTTP and poly(rA)/poly(dT)12-18 as described previously. For the RT reaction in the presence of ATP, RT activities were measured in 100 µl of RT reaction cocktail consisting of 50 mM Tris-HCl pH 7.5, 75 mM KCl, 5 mM MgCl2, 2 mM DTT, 0.05% NP40, and 50% glycerol containing RT (1–10 nM), dTTP (0.2–18 µM), and ATP (0–4 mM). For the RT reaction in the presence of ATP and NRTI, RT activities were measured in 100 µl of the RT reaction cocktail containing RT (1–10 nM), dTTP (0.2–18 µM), ATP (0–5 mM), and AZTTP or d4TTP (0–1 µM). These experiments were performed in duplicate and repeated two to six times. […]
Supplementary file pone.0008867.s004.tif: Figure S4 Data on RT mutants from the ERT-mt6 RT. […] RNA-dependent DNA polymerase activity of the purified RTs (20 nM) was measured using a [α-^32P]dTTP and poly (rA)⋅p(dT)12-18 system. […] RNA-dependent DNA polymerase activity of the purified mutant RTs was measured using various concentrations of [α-^32P]dTTP and poly (rA)⋅p(dT)12-18 in the presence of ATP. […]

[4] = 0-4 mM ATP, Lineweaver-Burk double-reciprocal plots
[5] = ATP binding to RT-template-primer complex (RT complex 1)
[6] = ATP binding to RT-template-primer-dTTP complex (RT complex 2)
[7] = dTTP incorporation, absence of ATP

For `Nc1ncnc2c1ncn2[C@@H]1O[C@H](COP(=O)(O)OP(=O)(O)NP(=O)(O)O)[C@@H](O)[C@H]1O` [AMP-PNP, Adenosine 5′-(β, γ-imido) triphosphate], the “fold increase in IC50 of AZTTP compared to AZTTP without the compound” value (shortened to “fold increase … to AZTTP without the compound”) [1] was “approximately 150 fold”.
`Nc1ncnc2c1ncn2[C@@H]1O[C@H](COP(=O)(O)OP(=O)(O)OP(=O)(O)O)[C@@H](O)[C@H]1O` [ATP] was tested, and the “mode of inhibition of dTTP incorporation” value [2, 4] was “mixed noncompetitive inhibition”, the Ki [2, 5] was 2900 ± 1300 µM and the “Ki′^ATP” value [2, 6] was 1200 ± 500 µM. The “mode of inhibition of dTTP incorporation” value [1, 4] was “mixed noncompetitive inhibition”, the Ki [1, 5] was 2800 ± 1300 µM and the “Ki′^ATP” value [1, 6] was 1100 ± 400 µM. For the same compound, the “fold increase … to AZTTP without the compound” value [1] was “approximately 350 fold”.
With `Cc1cn([C@H]2C[C@H](N=[N+]=[N-])[C@@H](COP(=O)(O)OP(=O)(O)OP(=O)(O)O)O2)c(=O)[nH]c1=O` [AZTTP, 3′-Azido 3′-deoxythymidine 5′-triphosphate] the “fold increase in Ki^NRTI value compared to without ATP” value (from here on “fold increase … to without ATP”) [2] was “about 6.8 fold”, the “fold increase … to without ATP” value [1] was “about 30 fold” and the “fold reduction in the IC50 of AZTTP” value [3] was 4- to 5 fold.
`Cc1cn([C@H]2C=C[C@@H](COP(=O)(O)OP(=O)(O)OP(=O)(O)O)O2)c(=O)[nH]c1=O` [d4TTP, 3′-deoxy-2′, and 3′-didehydrothymidine 5′-triphosphate] was tested, and the “fold increase … to without ATP” value [2] was ~0.6 fold and the “fold increase … to without ATP” value [1] was ~8.5 fold.
With `Cc1cn([C@H]2C[C@H](O)[C@@H](COP(=O)(O)OP(=O)(O)OP(=O)(O)O)O2)c(=O)[nH]c1=O` [dTTP] the kcat [2, 7] was 1.04 ± 0.01 s⁻¹, the Km ([2]; substrate dTTP, absence of ATP) was 4 ± 0.1 µM and the kcat [1, 7] was 0.49 ± 0.01 s⁻¹. For the same compound, the Km ([1]; substrate dTTP, absence of ATP) was 13.8 ± 0.5 µM.
With NaPO4 the “fold increase … to AZTTP without the compound” value ([2]; in the presence of 5 mM of the indicated compound) was “little effect” and the “fold increase … to AZTTP without the compound” value [1] was “little effect”.
